Reference: the supplement of paper PMC11061612

Legend:
Assay in all cases: combination Emax (second highest fraction inhibited in the dose matrix, 72 h); higher = more inhibition; extreme values may be limits of the assay
[1] = test system: KU-19-19 (Bladder Carcinoma)
Method in brief: (§1)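 Cell lines grown in DMEM/F12 or RPMI with 10% FBS were plated in 1536-well plates and held 24 hours at 37°C, 5% CO2 before 72 hours of exposure to two-drug dose matrices, with DMSO typically at 0.2%. CellTiter-Glo 2.0 luminescence gave viability, which was converted to inhibition. Vehicle wells were set to 0 and blank wells to 1. Combination Emax is the second-highest inhibition in the matrix, and Bliss excess is the observed combination effect minus the expected EA + EB − EA·EB, where EA and EB are the single-agent effects.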

[2] = test system: TGBC11TKB (Gastric Carcinoma)
Method in brief: as §1

NB7 (Neuroblastoma) = test system: NB7 (Neuroblastoma)
Method in brief: as §1

[3] = test system: PF-382 (T-Lymphoblastic Leukemia)
Method in brief: as §1

[4] = test system: KYSE-50 (Esophageal Squamous Cell Carcinoma)
Method in brief: as §1

[5] = test system: SNU-C1 (Colorectal Carcinoma)
Method in brief: as §1

RPMI-7951 (Melanoma) = test system: RPMI-7951 (Melanoma)
Method in brief: as §1

NH-12 (Neuroblastoma) = test system: NH-12 (Neuroblastoma)
Method in brief: as §1

[6] = test system: MFE-319 (Endometrial Carcinoma)
Method in brief: as §1

[7] = test system: KYSE-150 (Esophageal Squamous Cell Carcinoma)
Method in brief: as §1

[8] = test system: H-EMC-SS (Chondrosarcoma)
Method in brief: as §1

[9] = test system: OCUB-M (Breast Carcinoma)
Method in brief: as §1

[10] = test system: LOU-NH91 (Squamous Cell Lung Carcinoma)
Method in brief: as §1

[11] = test system: EMC-BAC-2 (Non-Small Cell Lung Carcinoma)
Method in brief: as §1

[12] = test system: NCI-N87 (Gastric Carcinoma)
Method in brief: as §1

GI-1 (Glioblastoma) = test system: GI-1 (Glioblastoma)
Method in brief: as §1

EW-3 (Ewing's Sarcoma) = test system: EW-3 (Ewing's Sarcoma)
Method in brief: as §1

[13] = test system: NCI-H1573 (Lung Adenocarcinoma)
Method in brief: as §1

[14] = test system: KP-2 (Pancreatic Carcinoma)
Method in brief: as §1

[15] = test system: NCI-H513 (Other Solid Carcinomas)
Method in brief: as §1

| SMILES | combination Emax [1] | combination Emax [2] | combination Emax (NB7 (Neuroblastoma)) | combination Emax [3] | combination Emax [4] | combination Emax [5] | combination Emax (RPMI-7951 (Melanoma)) | combination Emax (NH-12 (Neuroblastoma)) | combination Emax [6] | combination Emax [7] | combination Emax [8] | combination Emax [9] | combination Emax [10] | combination Emax [11] | combination Emax [12] | combination Emax (GI-1 (Glioblastoma)) | combination Emax (EW-3 (Ewing's Sarcoma)) | combination Emax [13] | combination Emax [14] | combination Emax [15] |
| --- | --- | --- | --- | --- | --- | --- | --- | --- | --- | --- | --- | --- | --- | --- | --- | --- | --- | --- | --- | --- |
| CN(CCO)CC[C@H](CSc1ccccc1)Nc1ccc(S(=O)(=O)NC(=O)c2ccc(N3CCC([C@@H](O)c4ccccc4-c4ccc(Cl)cc4)CC3)cc2)cc1S(=O)(=O)C(F)(F)F [AZD4320] + C=CCn1c(=O)c2cnc(Nc3ccc(N4CCN(C)CC4)cc3)nc2n1-c1cccc(C(C)(C)O)n1 [AZD1775] (first compound max 1 µM, partner max 1 µM) | 0.964 | 0.964 | 0.689 | 1 | 0.476 | 0.613 | 0.879 | 0.98 | 0.944 | 0.432 | 0.402 | 0.487 | 0.822 | 0.425 | 0.888 | 1 | 0.962 | 0.291 | 0.912 | 0.707 |
| COc1nnc2ccc(N3CCC(c4ccc(OCCN5CCN(C)C(=O)[C@H]5C)cc4)CC3)nn12 [AZD5153] + C=CCn1c(=O)c2cnc(Nc3ccc(N4CCN(C)CC4)cc3)nc2n1-c1cccc(C(C)(C)O)n1 [AZD1775] (first compound max 1 µM, partner max 1 µM) | 0.731 | 0.831 | 0.587 | 0.999 | 0.798 | 0.546 | 0.802 | 0.91 | 0.741 | 0.666 | 0.23 | 0.572 | 0.948 | 0.735 | 0.717 | 0.973 | 0.622 | 0.637 | 0.437 | 0.437 |
| CN(C)CCCOc1ccc(-c2ccc3ncc4c(c3c2)n(C2CCOCC2)c(=O)n4C)cn1 [AZD0156] + CCN(CCO)CCCOc1ccc2c(Nc3cc(CC(=O)Nc4cccc(F)c4)[nH]n3)ncnc2c1 [AZD2811] (first compound max 1 µM, 7x7, partner max 1 µM) | 0.349 | 0.325 | 0.276 | 0.823 | 0.204 | 0.205 | 0.257 | 0.674 | 0.147 | 0.422 | 0.367 | 0.727 | 0.208 | 0.253 | 0.253 | 0.411 | 0.34 | 0.106 | 0.0724 | 0.136 |
| Cn1cnc2c(F)c(Nc3ccc(Br)cc3Cl)c(C(=O)NOCCO)cc21 [Selumetinib] + CC(C)n1c(=O)n(C)c2cnc3cc(F)c(-c4ccc(OCCCN5CCCCC5)nc4)cc3c21 [AZD1390] (first compound max 10 µM, 7x7, partner max 0.3 µM) | 0.917 | 0.507 | 0.0793 | 0.211 | 0.21 | 0.635 | 0.307 | 0.482 | 0.154 | 0.259 | 0.197 | 0.0283 | 0.219 | 0.278 | 0.3 | 0.216 | 0.104 | 0.264 | 0.463 | 0.22 |
| Cc1cc2ncnn2cc1Nc1ncc2c(n1)n(C1CCOCC1)c(=O)n2C [AZD7648] + CN(C)CCCOc1ccc(-c2ccc3ncc4c(c3c2)n(C2CCOCC2)c(=O)n4C)cn1 [AZD0156] (first compound max 10 µM, 7x7, partner max 1 µM) | 0.212 | 0.247 | 0.213 | 0.478 | 0.164 | 0.316 | 0.396 | 0.153 | 0.311 | 0.532 | 0.545 | 0.4 | 0.279 | 0.311 | 0.477 | 0.261 | 0.386 | 0.15 | 0.0295 | 0.133 |
| NC1(C(=O)N[C@@H](CCO)c2ccc(Cl)cc2)CCN(c2ncnc3[nH]ccc23)CC1 [Capivasertib] + COc1nnc2ccc(N3CCC(c4ccc(OCCN5CCN(C)C(=O)[C@H]5C)cc4)CC3)nn12 [AZD5153] (first compound max 10 µM, 7x7, partner max 1 µM) | 0.746 | 0.253 | 0.762 | 1 | 0.525 | 0.813 | 0.865 | 0.634 | 0.962 | 0.796 | 0.351 | 0.998 | 0.656 | 0.769 | 0.772 | 0.915 | 0.837 | 0.562 | 0.442 | 0.416 |
| C[C@@H](c1ccc2nccn2c1)n1nnc2ncc(-c3cnn(C)c3)nc21 [Savolitinib] + Cc1c2c(nn1C)CSCc1cc(n(C)n1)CSc1cc(c3ccccc3c1)OCCCc1c(C(=O)O)n(C)c3c-2c(Cl)ccc13 [AZD5991] (first compound max 1 µM, 7x7, partner max 1 µM) | 0.204 | 0.507 | 0.462 | 0.134 | 0.298 | 0.396 | 0.266 | 0.202 | 0.406 | 0.219 | 0.182 | 0.899 | 0.199 | 0.45 | 0.22 | 0.587 | 0.558 | 0.351 | 0.205 | 0.0607 |
| CC1(C)CCC(CN2CCN(c3ccc(C(=O)NS(=O)(=O)c4ccc(NCC5CCOCC5)c([N+](=O)[O-])c4)c(Oc4cnc5[nH]ccc5c4)c3)CC2)=C(c2ccc(Cl)cc2)C1 [Venetoclax] + COc1cc(Nc2ncc3c(n2)-c2ccc(Cl)cc2C(c2c(F)cccc2OC)=NC3)ccc1C(=O)O [Alisertib] (first compound max 1 µM, 7x7, partner max 10 µM) | 0.462 | 0.387 | 0.556 | 0.905 | 0.537 | 0.251 | 0.683 | 0.977 | 0.395 | 0.516 | 0.658 | 0.727 | 0.479 | 0.507 | 0.335 | 0.506 | 0.847 | 0.378 | 0.267 | 0.234 |
| Cc1cc2ncnn2cc1Nc1ncc2c(n1)n(C1CCOCC1)c(=O)n2C [AZD7648] + C[C@@H]1COCCN1C2=NC(=NC(=C2)C3(CC3)[S@](=N)(=O)C)C4=C5C=CNC5=NC=C4 [AZD6738] (first compound max 10 µM, 7x7, partner max 10 µM) | 0.782 | 0.861 | 0.572 | 0.858 | 0.628 | 0.38 | 0.912 | 0.863 | 0.726 | 0.561 | 0.475 | 0.49 | 0.295 | 0.513 | 0.718 | 0.888 | 0.755 | 0.592 | 0.0981 | 0.31 |
| NC1(C(=O)N[C@@H](CCO)c2ccc(Cl)cc2)CCN(c2ncnc3[nH]ccc23)CC1 [Capivasertib] + Cn1cnc2c(F)c(Nc3ccc(Br)cc3Cl)c(C(=O)NOCCO)cc21 [Selumetinib] (first compound max 10 µM, 7x7, partner max 10 µM) | 0.921 | 0.462 | 0.28 | 0.764 | 0.298 | 0.703 | 0.793 | 0.585 | 0.644 | 0.743 | 0.797 | 0.998 | 0.487 | 0.622 | 0.755 | 0.622 | 0.24 | 0.495 | 0.454 | 0.409 |
| Cc1c2c(nn1C)CSCc1cc(n(C)n1)CSc1cc(c3ccccc3c1)OCCCc1c(C(=O)O)n(C)c3c-2c(Cl)ccc13 [AZD5991] + CCN(CCO)CCCOc1ccc2c(Nc3cc(CC(=O)Nc4cccc(F)c4)[nH]n3)ncnc2c1 [AZD2811] (first compound max 1 µM, 7x7, partner max 1 µM) | 0.508 | 0.582 | 0.872 | 0.923 | 0.556 | 0.415 | 0.974 | 0.752 | 0.603 | 0.498 | 0.392 | 1 | 0.612 | 0.823 | 0.395 | 0.9 | 0.771 | 0.425 | 0.264 | 0.197 |
| NC1(C(=O)N[C@@H](CCO)c2ccc(Cl)cc2)CCN(c2ncnc3[nH]ccc23)CC1 [Capivasertib] + CCN(CCO)CCCOc1ccc2c(Nc3cc(CC(=O)Nc4cccc(F)c4)[nH]n3)ncnc2c1 [AZD2811] (first compound max 10 µM, 7x7, partner max 1 µM) | 0.515 | 0.244 | 0.613 | 0.916 | 0.388 | 0.588 | 0.766 | 0.728 | 0.423 | 0.536 | 0.488 | 1 | 0.519 | 0.564 | 0.73 | 0.754 | 0.595 | 0.323 | 0.132 | 0.19 |
| COc1cccc(OCCCN)c1-c1cc(Nc2cnc(C#N)cn2)n[nH]1 [Prexasertib] + O=C(c1cc(Cc2n[nH]c(=O)c3ccccc23)ccc1F)N1CCN(C(=O)C2CC2)CC1 [Olaparib] (first compound max 1 µM, 7x7, partner max 10 µM) | 0.886 | 0.952 | 0.749 | 0.897 | 0.75 | 0.663 | 0.974 | 0.893 | 0.811 | 0.61 | 0.31 | 0.701 | 0.573 | 0.44 | 0.668 | 0.933 | 0.815 | 0.608 | 0.289 | 0.295 |
